In patent US12568967B2, “Compositions comprising pyridine carboxylate herbicides with synthetic auxin herbicides or auxin transport inhibitors” (priority 2018, dated 2026):
Values joined by “and” are separate entries in the source; they are usually repeats but may differ in a detail not shown here. Equal entries are not always repeated.

Experiments:
[1] = system: Brassica napus (winter rape, BRSNW); assay: Greenhouse postemergence trial BRSNW; type: in vivo; details: BRSNW; alone 280 g/ha
Description: (§1) Seeds of the desired test plant species were planted in a 90:10% v/v (volume/volume) mixture of PRO-MIX® BX (Premier Tech Horticulture, Quakertown, PA, USA) and PROFILE® GREENS GRADE™ (Profile Products LLC, Buffalo Grove, IL, USA) planting mixture, which typically has a pH of 5.2 to 6.2 and an organic matter content of at least 50 percent, in plastic pots with a surface area of 103.2 square centimeters (cm^2). […] The plants were grown for 7-36 days (d) in a greenhouse with an approximate 14-hour (h) photo-period which was maintained at about 23° C. during the day and 22° C. during the night. Nutrients and water were added on a regular basis and supplemental lighting was provided with overhead metal halide 1000-Watt lamps as necessary. The plants were employed for testing when they reached the second or third true leaf stage.
(§2) Emulsifiable concentrates of each of each pyridine carboxylate herbicide (Compound A or Compound B) were prepared at 100 grams acid equivalent per liter (g ae/L). The emulsifiable concentrates also included a safener, cloquintocet-mexyl, at 120 grams active ingredient per liter (g ai/L), unless otherwise noted below. An aliquot of each emulsifiable concentrate was placed in a 25 mL glass vial and diluted with an aqueous mixture of 1.25% (v/v) ACTIROB® B esterified rapeseed oil (Bayer Crop Science, Research Triangle Park, NC, USA) or MSO® Concentrate with LECI-TECH® methylated soybean oil (Loveland Products, Loveland, CO, USA) to obtain concentrated stock solutions at the highest application rate for each herbicide, based upon a 12 milliliter (mL) application volume at a rate of 187 liters per hectare (L/ha). The concentrated stock solutions were further diluted with an aqueous mixture of 1.25% v/v ACTIROB® B or MSO® Concentrate with LECI-TECH® to obtain stock solutions at reduced application rates for each herbicide. Spray solutions of the herbicide combinations (Compound A or Compound B plus synthetic auxin herbicide or auxin transport inhibitor) were prepared by adding weighed amounts or aliquots of the synthetic auxin herbicide or auxin transport inhibitor to the stock solutions of Compound A or Compound B to form 12-mL spray solutions in two-way combinations.
(§3) The spray solutions were applied to the plant material with an overhead Mandel track sprayer equipped with 8002E nozzles calibrated to deliver 187 L/ha over an application area of 0.503 square meters (m^2) at a spray height of 18 inches (43 centimeters (cm)) above the average plant canopy. Control plants were sprayed in the same manner with the solvent blank. All pyridine carboxylate herbicide (component a) application rates are given as “g ae/ha” and all synthetic auxin herbicide or auxin transport inhibitor (component b) application rates are given as “g ai/ha.”
(§4) The treated plants and control plants were placed in a greenhouse as described above and watered by sub-irrigation to prevent wash-off of the test compounds. After 20-22 d, the condition of the test plants as compared with that of the control plants was determined visually and scored on a scale of 0 to 100 percent where 0 corresponds to no injury and 100 corresponds to complete kill.

[2] = system: Polygonum convolvulus (wild buckwheat, POLCO); assay: Greenhouse postemergence trial POLCO; type: in vivo; details: for % visual injury (Obs): POLCO, alone 280 g/ha
[3] = system: Cirsium arvense (Canadian thistle, CIRAR); assay: Greenhouse postemergence trial CIRAR; type: in vivo; details: for % visual injury (Obs): CIRAR, alone 280 g/ha
[4] = system: Sinapis arvensis (wild mustard, SINAR); assay: Greenhouse postemergence trial SINAR; type: in vivo; details: SINAR; alone 280 g/ha
[5] = system: Kochia scoparia (kochia, KCHSC); assay: Greenhouse postemergence trial KCHSC; type: in vivo; details: for % visual injury (Obs): KCHSC, alone 280 g/ha
[6] = system: Chenopodium album L. (common lambsquarters, CHEAL); assay: Greenhouse postemergence trial CHEAL; type: in vivo; details: for % visual injury (Obs): CHEAL, alone 280 g/ha;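 on all read-outs here: greenhouse plants sprayed at second to third true leaf stage, injury rated by eye after 20-22 d versus solvent-blank sprayed controls, 0 = no injury, 100 = complete kill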
Description: (§5) The plants were grown for 7-36 days (d) in a greenhouse with an approximate 14-hour (h) photo-period which was maintained at about 23° C. during the day and 22° C. during the night. Nutrients and water were added on a regular basis and supplemental lighting was provided with overhead metal halide 1000-Watt lamps as necessary. The plants were employed for testing when they reached the second or third true leaf stage.
(§6) The emulsifiable concentrates also included a safener, cloquintocet-mexyl, at 120 grams active ingredient per liter (g ai/L), unless otherwise noted below.
(§7) Control plants were sprayed in the same manner with the solvent blank. All pyridine carboxylate herbicide (component a) application rates are given as “g ae/ha” and all synthetic auxin herbicide or auxin transport inhibitor (component b) application rates are given as “g ai/ha.”
as §4

[7] = system: Amaranthus retroflexus (pigweed, AMARE); assay: Greenhouse postemergence trial AMARE; type: in vivo; details: for % visual injury (Obs): AMARE, alone 280 g/ha;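 on all read-outs here: Greenhouse-grown plants sprayed at second to third true leaf stage, injury rated by eye after 20-22 d versus solvent-blank sprayed controls, 0 = no injury, 100 = complete kill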
[8] = system: Matricaria chamomilla (wild chamomile, MATCH); assay: Greenhouse postemergence trial MATCH; type: in vivo; details: MATCH; alone 280 g/ha;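 further: greenhouse plants sprayed at second to third true leaf stage, injury rated by eye 20-22 d later versus solvent-blank controls on 0–100 scale, 0 no injury, 100 complete kill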
Description: as §5, §6, §7, §4

[9] = system: Stellaria media (chickweed, STEME); assay: Greenhouse postemergence trial STEME; type: in vivo
[10] = system: Rumex obtusifolius (broad-leaf dock, RUMOB); assay: Greenhouse postemergence trial RUMOB; type: in vivo
Description: as §1, §2, §3, §4

[11] = system: Abutilon theophrasti (velvetleaf, ABUTH); assay: Greenhouse postemergence trial ABUTH; type: in vivo
[12] = system: Glycine max (volunteer soybean, GLXMA); assay: Greenhouse postemergence trial GLXMA; type: in vivo
Description: as §1, §2, §3, §4

[13] = system: Helianthus annuus (common sunflower, HELAN); assay: Greenhouse postemergence trial HELAN; type: in vivo
Description: as §1, §2, §3, §4

[14] = system: Ipomoea hederacea (ivyleaf morningglory, IPOHE); assay: Greenhouse postemergence trial IPOHE; type: in vivo
[15] = system: Viola tricolor (wild pansy, VIOTR); assay: Greenhouse postemergence trial VIOTR;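 further: greenhouse plants sprayed at second to third true leaf stage, injury rated visually after 20-22 d against solvent-blank sprayed controls, 0 meaning no injury and 100 complete kill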
[16] = system: Triticum aestivum (spring wheat, TRZAS); type: in vivo
[17] = system: Hordeum vulgare (spring barley, HORVS); type: in vivo
Description: as §1, §2, §3, §4

[18] = system: Cyanus segetum (cornflower, CENCY); assay: Greenhouse postemergence trial CENCY; type: in vivo; details: c1-3 Compound A 7.5/10/15; c4-5 Fluroxypyr-MHE 100/140; c6-8, c9-11 A 7.5/10/15 + Fluroxypyr-MHE 100, 140 g/ha
[19] = system: Viola arvensis (field violet, VIOAR); assay: Greenhouse postemergence trial VIOAR; type: in vivo; details: c1-3 Compound A 7.5/10/15; c4-5 Fluroxypyr-MHE 100/140; c6-8, c9-11 A 7.5/10/15 + Fluroxypyr-MHE 100, 140 g/ha
[20] = system: Galium aparine (cleavers, GALAP); assay: Greenhouse postemergence trial GALAP; type: in vivo; details: c1-3 Compound A 7.5/10/15; c4-5 Fluroxypyr-MHE 100/140; c6-8, c9-11 A 7.5/10/15 + Fluroxypyr-MHE 100, 140 g/ha
Description: as §1, §2, §3, §4

[21] = system: Veronica hederifolia (ivyleaf speedwell, VERHE); assay: Greenhouse postemergence trial VERHE; type: in vivo; details: c1-3 Compound A 7.5/10/15; c4-5 Fluroxypyr-MHE 100/140; c6-8, c9-11 A 7.5/10/15 + Fluroxypyr-MHE 100, 140 g/ha
[22] = system: Papaver rhoeas (corn poppy, PAPRH); assay: Greenhouse postemergence trial PAPRH; type: in vivo; details: c1-3 Compound A 7.5/10/15; c4-5 Fluroxypyr-MHE 100/140; c6-8, c9-11 A 7.5/10/15 + Fluroxypyr-MHE 100, 140 g/ha
[23] = system: Veronica persica (bird's-eye speedwell, VERPE); assay: Greenhouse postemergence trial VERPE; type: in vivo; details: c1-3 Compound A 7.5/10/15; c4-5 Fluroxypyr-MHE 100/140; c6-8, c9-11 A 7.5/10/15 + Fluroxypyr-MHE 100, 140 g/ha
[24] = system: Papaver rhoeas (corn poppy), herbicide-resistant (PAPRH-R); assay: Greenhouse postemergence trial PAPRH-R; type: in vivo; details: c1-3 Compound A 7.5/10/15; c4-5 Fluroxypyr-MHE 100/140; c6-8, c9-11 A 7.5/10/15 + Fluroxypyr-MHE 100, 140 g/ha
[25] = system: Capsella bursa-pastoris (shepherd's purse, CAPBP); assay: Greenhouse postemergence trial CAPBP; type: in vivo; details: c1-3 Compound A 7.5/10/15; c4-5 Fluroxypyr-MHE 100/140; c6-8, c9-11 A 7.5/10/15 + Fluroxypyr-MHE 100, 140 g/ha
Description: as §1, §2, §3, §4

[26] = system: Anthemis arvensis (field chamomile, ANTAR); assay: Greenhouse postemergence trial ANTAR; type: in vivo; details: c1-3 Compound A 7.5/10/15; c4-5 Fluroxypyr-MHE 100/140; c6-8, c9-11 A 7.5/10/15 + Fluroxypyr-MHE 100, 140 g/ha
Description: as §1, §2, §3, §4

[27] = system: Matricaria discoidea (pineapple weed, MATMT); assay: Greenhouse postemergence trial MATMT; type: in vivo; details: c1-3 Compound A 7.5/10/15; c4-5 Fluroxypyr-MHE 100/140; c6-8, c9-11 A 7.5/10/15 + Fluroxypyr-MHE 100, 140 g/ha
Description: as §1, §2, §3, §4

[28] = system: Matricaria inodora (false chamomile, MATIN); assay: Greenhouse postemergence trial MATIN; type: in vivo; details: c1-3 Compound A 7.5/10/15; c4-5 Fluroxypyr-MHE 100/140; c6-8, c9-11 A 7.5/10/15 + Fluroxypyr-MHE 100, 140 g/ha
[29] = system: Triticum aestivum (winter wheat, TRZAW); assay: Greenhouse postemergence crop phytotoxicity TRZAW; type: in vivo; details: c1-3 Compound A 7.5/10/15; c4-5 Fluroxypyr-MHE 100/140; c6-8, c9-11 A 7.5/10/15 + Fluroxypyr-MHE 100, 140 g/ha
[30] = system: Hordeum vulgare (winter barley, HORVW); assay: Greenhouse postemergence crop phytotoxicity HORVW; type: in vivo; details: c1-3 Compound A 7.5/10/15; c4-5 Fluroxypyr-MHE 100/140; c6-8, c9-11 A 7.5/10/15 + Fluroxypyr-MHE 100, 140 g/ha
Description: as §1, §2, §3, §4

[31] = system: Lamium purpureum (purple deadnettle, LAMPU); assay: Greenhouse postemergence trial LAMPU; details: c1-3 Compound A 7.5/10/15; c4-5 Fluroxypyr-MHE 100/140; c6-8, c9-11 A 7.5/10/15 + Fluroxypyr-MHE 100, 140 g/ha
[32] = Dichlorprop-K 280 g/ha (Table 40)
[33] = c1-3 Compound A 7.5/10/15, c4-5 Fluroxypyr-MHE 100/140, c6-8, c9-11 A 7.5/10/15 + Fluroxypyr-MHE 100, 140 g/ha

Structure (SMILES): CC(Oc1ccc(Cl)cc1Cl)C(=O)[O-].[K+] (stereo not drawn) [Dichlorprop-K]
- % visual injury (Obs) [1]: 63%
- POLCO % visual injury Obs [2, 32]: 0%
- % visual injury (Obs) [2]: 18%
- % visual injury (Obs) [3]: 15%
- CIRAR % visual injury Obs [3, 32]: 63%
- % visual injury (Obs) [4]: 78%
- KCHSC % visual injury Obs [5, 32]: 63%
- % visual injury (Obs) [5]: 60%
- % visual injury (Obs) [6]: 70%
- CHEAL % visual injury Obs [6, 32]: 60%
- % visual injury (Obs) [7]: 85%
- AMARE % visual injury Obs [7, 32]: 10%
- % visual injury (Obs) [8]: 20%
- STEME % visual injury Obs [9, 32]: 0%
- RUMOB % visual injury Obs [10, 32]: 73%
- ABUTH % visual injury Obs [11, 32]: 40%
- GLXMA % visual injury Obs [12, 32]: 33%
- HELAN % visual injury Obs [13, 32]: 90%
- IPOHE % visual injury Obs [14, 32]: 75%
- VIOTR % visual injury Obs [15, 32]: 65%

Structure (SMILES): CCCCCCC(C)OC(=O)COc1nc(F)c(Cl)c(N)c1Cl (stereo not drawn) [Fluroxypyr-MHE, fluroxypyr-meptyl, reference compound]
- % visual injury (crop phytotoxicity) [16, 33]: 0%
- % visual injury (crop phytotoxicity) [17, 33]: 0%
- % visual injury [18]: 60% and 95%
- % visual injury [19]: 20%
- % visual injury [20]: 85% and 95%
- % visual injury [21]: 30% and 60%
- % visual injury [22]: 10%
- % visual injury [23]: 70% and 85%
- % visual injury [24]: 10%
- % visual injury [25]: 0%
- % visual injury [9, 33]: 70% and 75%
- % visual injury [26]: 30% and 35%
- % visual injury [27]: 0%
- % visual injury [28]: 10% and 15%
- % visual injury (crop phytotoxicity) [29]: 0%
- % visual injury (crop phytotoxicity) [30]: 0%
- % visual injury [31]: 60% and 65%
- % visual injury [15, 33]: 50%

Structure (SMILES): CCCCC(CC)COC(=O)COc1ccc(Cl)cc1C (stereo not drawn) [MCPA EHE]
- % visual injury (Obs) [1]: 60%
- POLCO % visual injury Obs ([2]; MCPA EHE 280 g/ha (Table 41)): 0%
- % visual injury (Obs) [2]: 10%
- % visual injury (Obs) [3]: 20%
- CIRAR % visual injury Obs ([3]; MCPA EHE 280 g/ha (Table 41)): 23%
- % visual injury (Obs) [4]: 80%
- % visual injury (Obs) [5]: 10%
- KCHSC % visual injury Obs ([5]; MCPA EHE 280 g/ha (Table 41)): 0%
- % visual injury (Obs) [6]: 70%
- CHEAL % visual injury Obs ([6]; MCPA EHE 280 g/ha (Table 41)): 73%
- % visual injury (Obs) [7]: 50%
- AMARE % visual injury Obs ([7]; MCPA EHE 280 g/ha (Table 41)): 30%
- % visual injury (Obs) [8]: 20%
- % visual injury (Obs) ([16]; TRZAS, alone 280 g/ha): 0%
- % visual injury (Obs) ([17]; HORVS, alone 280 g/ha): 0%
- STEME % visual injury Obs ([9]; MCPA EHE 280 g/ha (Table 41)): 0%
- RUMOB % visual injury Obs ([10]; MCPA EHE 280 g/ha (Table 41)): 25%
- ABUTH % visual injury Obs ([11]; MCPA EHE 280 g/ha (Table 41)): 5%
- GLXMA % visual injury Obs ([12]; MCPA EHE 280 g/ha (Table 41)): 30%
- HELAN % visual injury Obs ([13]; MCPA EHE 280 g/ha (Table 41)): 90%
- IPOHE % visual injury Obs ([14]; MCPA EHE 280 g/ha (Table 41)): 78%
- VIOTR % visual injury Obs ([15]; MCPA EHE 280 g/ha (Table 41)): 0%
